Experimental findings from US10865211B2 (ENANTA PHARMACEUTICALS, INC, priority 2018, dated 2020) are described below.

A short description of data set [1]: Compound induced cellular toxicity in HepG2 cells (ATPlite). Format: cell-based. The settings on record: human, three days, ATPlite 1 Step, concentration reducing total ATP levels by 50% relative to no drug controls. The protocol: At day 3, post seeding cells are treated with ATPlite 1 Step according to the manufacturer's instructions.
(In general: ATP-based viability assays read luminescence as a measure of living cells.)

A further data set deals with 2.2.15 cells. Description: Antiviral activity in 2.2.15 cells: reduction of viral product accumulation (qPCR, HBsAg/HBeAg ELISA). The settings on record: Hepatitis B virus, 120 h, day 5 post treatment, concentration reducing viral product accumulation in cell lysates or supernatants by 50% relative to no drug controls. Format: cell-based, HBV. The protocol: 2.2.15 cells are passaged upon attaining confluency in DMEM/F12 media in the presence of 10% FBS, Penn/Strep, and 250 ug/mL G418. Novel compounds are 5 fold serially diluted in DMSO and added to 96 well plates containing 35,000 cells/well at a 1:200 dilution so that the final concentration of DMSO is 0.5%. On day 5, post treatment cell lysates and supernatants are harvested for analysis.
Cells are lysed using Agilent Sidestep Lysis buffer, diluted 1:100 and quantified via quantitative real time PCR. Commercially available ELISA kits are used to quantitate the viral proteins HBsAg (Alpco) or HBeAg (US Biological) by following the manufacturer's recommended protocol after diluting samples to match the linear range of their respective assays. Irrespective of readout, compound concentrations that reduce viral product accumulation in the cell lysates or supernatants by 50% relative to no drug controls (EC50) are reported; EC50 ranges are as follows: A<0.1 μM; B 0.1-1 μM; C>1 μM.
Background: Quantitative PCR measures a nucleic acid by following its amplification.

By CC50 is commonly meant the concentration giving 50% cytotoxicity. As a reminder, the EC50 is the midpoint of the concentration-response curve. A higher EC50 goes with weaker potency. In data set [1], `CC(C)[C@@H]1Cc2c(oc3c(OC(F)F)cccc23)-c2cc(=O)c(C(=O)O)cn21` [Example 77, (S)-11-(difluoromethoxy)-6-isopropyl-2-oxo-6,7-dihydro-2H-benzofuro[2,3-a]quinolizine-3-carboxylic acid] displayed a CC50 at 3 days of over 25 µM. The same molecule had an EC50 in the data set with 2.2.15 cells of under 0.1 µM.

Consider `O=C(O)c1cn2c(cc1=O)-c1oc3ccccc3c1CC2c1ccccc1` (stereo not drawn) [Example 2, 2-oxo-6-phenyl-6,7-dihydro-2H-benzofuro[2,3-a]quinolizine-3-carboxylic acid], for which the cytotoxic concentration (CC50) at 3 days in data set [1] is over 25 µM. In addition, the EC50 in the data set on 2.2.15 cells is over 1 µM.

As to `CCc1ccc2c3c(oc2c1)-c1cc(=O)c(C(=O)O)cn1[C@H](C(C)(C)C)C3` [Example 25, (S)-6-(tert-butyl)-10-ethyl-2-oxo-6,7-dihydro-2H-benzofuro[2,3-a]quinolizine-3-carboxylic acid], the CC50 at 3 days in data set [1] is over 25 µM. The EC50 in the data set on 2.2.15 cells is under 0.1 µM.

For `CC(C)(C)[C@@H]1Cc2c(oc3c(OC(F)F)cccc23)-c2cc(=O)c(-c3ncn[nH]3)cn21` [Example 8, (S)-6-(tert-butyl)-11-(difluoromethoxy)-3-(1H-1,2,4-triazol-5-yl)-6,7-dihydro-2H-benzofuro[2,3-a]quinolizin-2-one], the CC50 at 3 days in data set [1] was over 25 µM. Besides, the EC50 with 2.2.15 cells is under 0.1 µM.

Molecule `CC(C)(C)[C@@H]1Cc2c(oc3c(N4CCC(F)(F)C4)cccc23)-c2cc(=O)c(C(=O)O)cn21` [Example 36, (S)-6-(tert-butyl)-11-(3,3-difluoropyrrolidin-1-yl)-2-oxo-6,7-dihydro-2H-benzofuro[2,3-a]quinolizine-3-carboxylic acid] returned a CC50 at 3 days in data set [1] of over 25 µM. The same molecule showed an EC50 in the data set on 2.2.15 cells of under 0.1 µM.

Turning to `CC(C)[C@@H]1Cc2c(oc3c(C4CC4)cccc23)-c2cc(=O)c(C(=O)O)cn21` [Example 83, (S)-11-cyclopropyl-6-isopropyl-2-oxo-6,7-dihydro-2H-benzofuro[2,3-a]quinolizine-3-carboxylic acid], the CC50 at 3 days in data set [1] was under 10 µM. In the data set with 2.2.15 cells, the concentration for a half-maximal effect (EC50) was under 0.1 µM.

Molecule `CC(C)(C)[C@@H]1Cc2c(oc3cc(-c4ccn[nH]4)ccc23)-c2cc(=O)c(C(=O)O)cn21` [Example 14, (S)-6-(tert-butyl)-2-oxo-10-(1H-pyrazol-5-yl)-6,7-dihydro-2H-benzofuro[2,3-a]quinolizine-3-carboxylic acid] displayed a CC50 at 3 days in data set [1] of over 25 µM. Further, the EC50 in the data set on 2.2.15 cells was under 0.1 µM.

For the molecule `CC(C)[C@@H]1Cc2c(oc3c(-c4ccco4)cccc23)-c2cc(=O)c(C(=O)O)cn21` [Example 67, (S)-11-(furan-2-yl)-6-isopropyl-2-oxo-6,7-dihydro-2H-benzofuro[2,3-a]quinolizine-3-carboxylic acid], the CC50 at 3 days in data set [1] was in the range of 10 to 25 µM. This molecule had an EC50 with 2.2.15 cells of under 0.1 µM.

Consider `Cn1cc(-c2cccc3c4c(oc23)-c2cc(=O)c(C(=O)O)cn2[C@H](C(C)(C)C)C4)cn1` [Example 29, (S)-6-(tert-butyl)-11-(1-methyl-1H-pyrazol-4-yl)-2-oxo-6,7-dihydro-2H-benzofuro[2,3-a]quinolizine-3-carboxylic acid], for which the CC50 at 3 days in data set [1] lay within 10 to 25 µM. The molecule further yielded an EC50 with 2.2.15 cells of under 0.1 µM.

Take `CC(C)[C@@H]1Cc2c(oc3c(-c4cccs4)cccc23)-c2cc(=O)c(C(=O)O)cn21` [Example 79, (S)-6-isopropyl-2-oxo-11-(thiophen-2-yl)-6,7-dihydro-2H-benzofuro[2,3-a]quinolizine-3-carboxylic acid]: the CC50 at 3 days in data set [1] was under 10 µM. In addition, the EC50 with 2.2.15 cells is under 0.1 µM.

Regarding `CC(C)(C)[C@@H]1Cc2c(oc3c(-c4ccsc4)cccc23)-c2cc(=O)c(C(=O)O)cn21` [Example 35, (S)-6-(tert-butyl)-2-oxo-11-(thiophen-3-yl)-6,7-dihydro-2H-benzofuro[2,3-a]quinolizine-3-carboxylic acid], the CC50 at 3 days in data set [1] was over 25 µM. Besides, the EC50 with 2.2.15 cells was under 0.1 µM.

`CC(C)(C)[C@@H]1Cc2c(oc3c(-n4cccn4)cccc23)-c2cc(=O)c(C(=O)O)cn21` [Example 42, (S)-6-(tert-butyl)-2-oxo-11-(1H-pyrazol-1-yl)-6,7-dihydro-2H-benzofuro[2,3-a]quinolizine-3-carboxylic acid] registered a CC50 at 3 days in data set [1] of over 25 µM. The same molecule gave an EC50 with 2.2.15 cells of under 0.1 µM.

In the case of `CC(C)(C)[C@@H]1Cc2c(oc3c(-c4cccs4)cccc23)-c2c(F)c(=O)c(C(=O)O)cn21` [Example 54, (S)-6-(tert-butyl)-1-fluoro-2-oxo-11-(thiophen-2-yl)-6,7-dihydro-2H-benzofuro[2,3-a]quinolizine-3-carboxylic acid], in data set [1], the CC50 at 3 days is over 25 µM. For the same molecule, in the data set with 2.2.15 cells, the EC50 was under 0.1 µM.

Take `Cc1cccc2c3c(oc12)-c1c(F)c(=O)c(C(=O)O)cn1[C@H](C(C)(C)C)C3` [Example 64, (S)-6-(tert-butyl)-1-fluoro-11-methyl-2-oxo-6,7-dihydro-2H-benzofuro[2,3-a]quinolizine-3-carboxylic acid]: the CC50 at 3 days in data set [1] was over 25 µM. The molecule further gave a 50% effective concentration (EC50) with 2.2.15 cells of under 0.1 µM.

As to `CC(C)(C)[C@@H]1Cc2c(oc3cc(-c4nccs4)ccc23)-c2cc(=O)c(C(=O)O)cn21` [Example 21, (S)-6-(tert-butyl)-2-oxo-10-(thiazol-2-yl)-6,7-dihydro-2H-benzofuro[2,3-a]quinolizine-3-carboxylic acid], in data set [1], the CC50 at 3 days lay within 10 to 25 µM. For the same molecule, in the data set with 2.2.15 cells, the EC50 was under 0.1 µM.

With `CC(C)[C@@H]1Cc2c(oc3cc(OC(F)F)ccc23)-c2cc(=O)c(C(=O)O)cn21` [Example 68, (S)-10-(difluoromethoxy)-6-isopropyl-2-oxo-6,7-dihydro-2H-benzofuro[2,3-a]quinolizine-3-carboxylic acid], the CC50 at 3 days in data set [1] was under 10 µM. Besides, in the data set with 2.2.15 cells, the EC50 was under 0.1 µM.

The molecule `Cn1cc(-c2ccc3c4c(oc3c2)-c2cc(=O)c(C(=O)O)cn2[C@H](C(C)(C)C)C4)cn1` [Example 10, (S)-6-(tert-butyl)-10-(1-methyl-1H-pyrazol-4-yl)-2-oxo-6,7-dihydro-2H-benzofuro[2,3-a]quinolizine-3-carboxylic acid] gave a CC50 at 3 days in data set [1] of over 25 µM. In the data set on 2.2.15 cells, this molecule registered an EC50 of under 0.1 µM.

`CC(C)(C)[C@@H]1Cc2c(oc3c(OC4COC4)cccc23)-c2cc(=O)c(C(=O)O)cn21` [Example 46, (S)-6-(tert-butyl)-11-(oxetan-3-yloxy)-2-oxo-6,7-dihydro-2H-benzofuro[2,3-a]quinolizine-3-carboxylic acid] returned a CC50 at 3 days in data set [1] of over 25 µM. Further, the EC50 in the data set with 2.2.15 cells is under 0.1 µM.

With `CC(C)[C@@H]1Cc2c(oc3c(-c4cnsc4)cccc23)-c2cc(=O)c(C(=O)O)cn21` [Example 70, (S)-6-isopropyl-11-(isothiazol-4-yl)-2-oxo-6,7-dihydro-2H-benzofuro[2,3-a]quinolizine-3-carboxylic acid], in data set [1], the CC50 at 3 days is over 25 µM. Besides, in the data set on 2.2.15 cells, the EC50 was under 0.1 µM.

As for `CC(C)[C@@H]1Cc2c(oc3cc(-n4cccn4)ccc23)-c2cc(=O)c(C(=O)O)cn21` [Example 72, (S)-6-isopropyl-2-oxo-10-(1H-pyrazol-1-yl)-6,7-dihydro-2H-benzofuro[2,3-a]quinolizine-3-carboxylic acid], the CC50 at 3 days in data set [1] is under 10 µM. Further, the EC50 with 2.2.15 cells was under 0.1 µM.

With `CC(C)(C)[C@@H]1Cc2c(oc3cc(C#N)ccc23)-c2cc(=O)c(C(=O)O)cn21` [Example 12, (S)-6-(tert-butyl)-10-cyano-2-oxo-6,7-dihydro-2H-benzofuro[2,3-a]quinolizine-3-carboxylic acid], in data set [1], the CC50 at 3 days is over 25 µM. Further, the EC50 in the data set on 2.2.15 cells is under 0.1 µM.

In data set [1], `CC(C)[C@@H]1Cc2c(oc3c(N4CCC(F)(F)C4)cccc23)-c2cc(=O)c(C(=O)O)cn21` [Example 71] yielded a CC50 at 3 days of under 10 µM. The molecule also registered an EC50 in the data set with 2.2.15 cells of under 0.1 µM.

In data set [1], `CC(C)(C)[C@@H]1Cc2c(oc3cc(C4CC4)ccc23)-c2cc(=O)c(C(=O)O)cn21` [Example 23, (S)-6-(tert-butyl)-10-cyclopropyl-2-oxo-6,7-dihydro-2H-benzofuro[2,3-a]quinolizine-3-carboxylic acid] had a CC50 at 3 days of 10 to 25 µM. The EC50 in the data set with 2.2.15 cells was under 0.1 µM.

Molecule `CC(C)(C)[C@@H]1Cc2c(oc3c(-c4ccn[nH]4)cccc23)-c2c(F)c(=O)c(C(=O)O)cn21` [Example 51, (S)-6-(tert-butyl)-1-fluoro-2-oxo-11-(1H-pyrazol-5-yl)-6,7-dihydro-2H-benzofuro[2,3-a]quinolizine-3-carboxylic acid] yielded a CC50 at 3 days in data set [1] of over 25 µM. This molecule also displayed an EC50 in the data set on 2.2.15 cells of under 0.1 µM.

The molecule `CC(C)[C@@H]1Cc2c(oc3c(-c4ccoc4)cccc23)-c2cc(=O)c(C(=O)O)cn21` [Example 66, (S)-11-(furan-3-yl)-6-isopropyl-2-oxo-6,7-dihydro-2H-benzofuro[2,3-a]quinolizine-3-carboxylic acid] gave a CC50 at 3 days in data set [1] of 10 to 25 µM. In addition, the EC50 with 2.2.15 cells is under 0.1 µM.

The molecule `CC(C)(C)[C@@H]1Cc2c(oc3c(-c4ccoc4)cccc23)-c2c(F)c(=O)c(C(=O)O)cn21` [Example 48, (S)-6-(tert-butyl)-1-fluoro-11-(furan-3-yl)-2-oxo-6,7-dihydro-2H-benzofuro[2,3-a]quinolizine-3-carboxylic acid] showed a CC50 at 3 days in data set [1] of over 25 µM. In the data set on 2.2.15 cells, this molecule gave an EC50 of under 0.1 µM.

Molecule `Cc1ccc2c3c(oc2c1)-c1cc(=O)c(C(=O)O)cn1[C@H](C(C)C)C3` [Example 73, (S)-6-isopropyl-10-methyl-2-oxo-6,7-dihydro-2H-benzofuro[2,3-a]quinolizine-3-carboxylic acid] returned a CC50 at 3 days in data set [1] of over 25 µM. In addition, the EC50 in the data set with 2.2.15 cells is under 0.1 µM.
